Measured values reported in patent publication US20230116703A1, “NOVEL ERGOLINES AND METHODS OF TREATING MOOD DISORDERS” (priority 2021, published 2023).

Tests used:
[1] = test system: C57BL/6 mice; test: Marble burying test (MBT) in mice; format: in vivo; conditions: mouse, SC, 30-minute period
Protocol: Compound 1 produced an anxiolytic-like effect in the marble burying test (MBT) in C57BL/6 mice (FIG. 3).
Animals. Adult male C57BL/6 mice, aged 8-10 weeks (body weight 20-25 g) were used in these experiments. Animals were housed under controlled temperatures and 12-hour light/dark cycles (lights on between 07:00-19:00 h), with ad libitum food and water. This study was carried out in strict accordance with the requirements of the Committee for the Purpose of Control and Supervision of Experiments on Animals (CPCSEA), India. All efforts were made to minimize suffering.
Drugs and Drug Administration. Compound 1 was synthesized as described above. Desipramine HCl was commercially obtained. The test compound, vehicle, and the positive control desipramine were administered subcutaneously (SC), with doses calculated based on the freebase. Normal saline was used as the vehicle. All compounds were administered at a volume of 10 mL/kg. All treatments were administered 30 minutes prior to the start of behavioral testing. Group size was n=9-10 per treatment.
Marble Burying Test (MBT). […] Mice were handled for about 2 min daily for the 3 days prior to the beginning of the experimental procedure. […] The total number of marbles buried were counted in three 10-minute time bins (total 30 minutes). […]

[2] = test system: Sprague Dawley rats; test: Forced swim test (FST) in rats; format: in vivo, rat; conditions: for efficacy in FST compared to positive control desipramine (in words): 0.032 mg/kg, SC
Protocol: Compound 1 induced antidepressant-like effects in the forced swim test (FST) in rats with a 23.5-h pre-treatment time (FIG. 2).
Animals. Male Sprague Dawley rats, aged 9-10 weeks, were used in this experiment. Animals were housed in groups of 2 under controlled temperature (22±3° C.) and relative humidity (30-70%) conditions, with 12-hour light/dark cycles, and with ad libitum food and water. This study was carried out in strict accordance with the requirements of the Committee for the Purpose of Control and Supervision of Experiments on Animals (CPCSEA), India. All efforts were made to minimize suffering.
Drugs and Drug Administration. Compound 1 was synthesized as described above. Desipramine HCl was commercially obtained. The test compound, saline vehicle, and the positive control desipramine were administered subcutaneously (SC), with doses calculated based on the freebase. Normal saline was used as the vehicle. All compounds were administered at a volume of 5 mL/kg. The test compound and vehicle were administered 0.5 h after the start of the training swim (Swim 1) and 23.5 h before the test swim (Swim 2). Desipramine was administered 3 times, at 23.5 h, 5 h, and 1 h before the test swim (Swim 2), each time at a dose of 20 mg/kg. Group size was n=10 per treatment.
Forced Swim Test (FST). […] Rats were handled for about 2 min daily for the 5 days prior to the beginning of the experimental procedure. On the first day of the experiment (i.e., Day 0), post randomization, training swim sessions (Swim 1) were conducted between 12:00 and 18:00 h with all animals by placing rats in individual glass cylinders (46 cm tall×20 cm in diameter) containing 23-25° C. water 30 cm deep for 15 minutes. At the conclusion of Swim 1, animals were dried with paper towels, placed in heated drying cages for 15 minutes, and then returned to their home cages. […]
Behavioral scoring was conducted by observers who were blind to the treatment groups. Animals were continuously observed during Swim 2 and the total time spent engaging in the following behaviors was recorded: immobile, swimming, and climbing. […]

[3] = target: T1, 5-HT2B receptor (Homo sapiens, UniProt P41595); test: 5-HT2B receptor radioligand binding with [^3H]LSD
T1 construct: host or cells: HEK293
T1 sequence (P41595 whole entry): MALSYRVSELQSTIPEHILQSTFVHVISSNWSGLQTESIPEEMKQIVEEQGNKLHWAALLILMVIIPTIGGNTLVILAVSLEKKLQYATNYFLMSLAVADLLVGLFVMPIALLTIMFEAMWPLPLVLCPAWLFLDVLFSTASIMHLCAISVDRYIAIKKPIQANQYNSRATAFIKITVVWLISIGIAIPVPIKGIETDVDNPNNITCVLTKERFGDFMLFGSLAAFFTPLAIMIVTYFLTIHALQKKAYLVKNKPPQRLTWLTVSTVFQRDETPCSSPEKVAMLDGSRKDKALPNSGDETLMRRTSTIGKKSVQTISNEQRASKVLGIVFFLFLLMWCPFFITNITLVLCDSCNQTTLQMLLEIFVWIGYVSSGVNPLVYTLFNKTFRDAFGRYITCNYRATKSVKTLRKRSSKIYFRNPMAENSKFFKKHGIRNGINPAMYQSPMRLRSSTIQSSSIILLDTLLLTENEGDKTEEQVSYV

Row | Compound | number of marbles buried compared to vehicle (in words) [1] | immobility time relative to vehicle (in words) ([2]; rat FST, 23.5 h after a single SC administration) | efficacy in FST compared to positive control desipramine (in words) [2] | Ki [3]
1 | CCCN1C[C@H](C(=O)N(CC)CC)C=C2c3cccc4[nH]cc(c34)C[C@H]21 [Compound 1, (6aR,9R)—N,N-diethyl-7-propyl-4,6,6a,7,8,9-hexahydroindolo[4,3-fg]quinoline-9-carboxamide] | reduced the number of marbles buried | reduced immobility time | – | –
2 | CCN(CC)C(=O)[C@@H]1C=C2c3cccc4[nH]cc(c34)C[C@H]2N(CCCF)C1 [Compound 2, (6aR,9R)—N,N-diethyl-7-(3-fluoropropyl)-4,6,6a,7,8,9-hexahydroindolo[4,3-fg]quinoline-9-carboxamide] | – | – | as efficacious as the positive control desipramine | 4.1 nM
3 | CCCN1C[C@H](C(=O)N[C@H](C)CC)C=C2c3cccc4[nH]cc(c34)C[C@H]21 [Compound 3, (6aR,9R)—N—((R)-sec-butyl)-7-propyl-4,6,6a,7,8,9-hexahydroindolo[4,3-fg]quinoline-9-carboxamide] | – | – | – | 4.09 nM
4 | CCCN1C[C@H](C(=O)N2[C@@H](C)C[C@@H]2C)C=C2c3cccc4[nH]cc(c34)C[C@H]21 [Compound 4, ((2S,4S)-2,4-dimethylazetidin-1-yl)((6aR,9R)-7-propyl-4,6,6a,7,8,9-hexahydroindolo[4,3-fg]quinolin-9-yl)methanone] | – | – | as efficacious as the positive control desipramine | 17.7 nM
5 | CCCN1C[C@H](C(=O)NC(CC)CC)C=C2c3cccc4[nH]cc(c34)C[C@H]21 [Compound 6, (6aR,9R)—N-(pentan-3-yl)-7-propyl-4,6,6a,7,8,9-hexahydroindolo[4,3-fg]quinoline-9-carboxamide] | – | – | – | 3.33 nM
